Measurements from ChEMBL document CHEMBL5325462, “Regioselective synthesis and in vitro cytotoxicity evaluation of 3-thiooxindole derivatives: Tubulin polymerization inhibition and apoptosis inducing studies” (Bioorg Med Chem, 2023).
Activity calls are given as the source filed them. The rule behind the calls is not given here.

Tests used:
A549 = test: Cytotoxicity against human A549 cells assessed as inhibition of cell growth measured after 72 hrs by MTT assay; assay type: functional, cell-based; settings: A549, 72 h
BT-474 = test: Cytotoxicity against human BT-474 cells assessed as inhibition of cell growth measured after 72 hrs by MTT assay; assay type: functional, cell-based; settings: BT-474, 72 h
[1] = Cytotoxicity against rat NRK cells assessed as inhibition of cell growth measured after 72 hrs by MTT assay; assay type: toxicity, cell-based
HCT-116 [2] = test: Induction of apoptosis in human HCT-116 cells assessed as reduction in cell viability at 3.32 to 13.28 uM measured after 48 hrs by phase contrast microscope; assay type: functional, cell-based; settings: dose 3.32-13.28 µM
HCT-116 [3] = test: Induction of morphological changes in human HCT-116 cells assessed as cell detachment at 3.32 to 13.28 uM measured after 48 hrs by phase contrast microscope; assay type: functional, cell-based; settings: dose 3.32-13.28 µM
HCT-116 [4] = test: Induction of morphological changes in human HCT-116 cells assessed as cell nucleus shrinkage at 3.32 to 13.28 uM measured after 48 hrs by phase contrast microscope; assay type: functional, cell-based; settings: dose 3.32-13.28 µM
HCT-116 [5] = test: Induction of morphological changes in human HCT-116 cells assessed as formation of apoptotic bodies incubated for 24 hrs by acridine orange/ethidium bromide staining based fluorescence microscopic analysis; assay type: functional, cell-based
HCT-116 [6] = test: Induction of morphological changes in human HCT-116 cells assessed as formation of necrotic bodies incubated for 24 hrs by acridine orange/ethidium bromide staining based fluorescence microscopic analysis; assay type: functional, cell-based
HCT-116 [7] = test: Induction of nuclear morphological changes in human HCT-116 cells assessed as change in nuclear shape measured after 48 hrs by DAPI-staining based fluorescence microscopic analysis; assay type: functional, cell-based
HCT-116 [8] = test: Inhibition of cell invasion in human HCT-116 cells at 3.32 to 13.28 uM measured after 48 hrs by phase contrast microscopic analysis; assay type: functional, cell-based; settings: dose 3.32-13.28 µM
HCT-116 [9] = test: Inhibition of colony formation in human HCT-116 cells at 3.32 to 13.28 uM measured after 14 days; assay type: functional, cell-based; settings: dose 3.32-13.28 µM, time 14.0 day
Cell membrane [10] = test: Induction of mitochondrial membrane potential loss in human HCT-116 cells assessed as polarized cells at 3.32 uM incubated for 72 hrs by JC-1 staining based flow cytometry analysis (reference value: 99.6 %); assay type: subcellular
Cell membrane [11] = test: Induction of mitochondrial membrane potential loss in human HCT-116 cells assessed as polarized cells at 6.64 uM incubated for 72 hrs by JC-1 staining based flow cytometry analysis (reference value: 99.6 %); assay type: subcellular
Cell membrane [12] = test: Induction of mitochondrial membrane potential loss in human HCT-116 cells assessed as polarized cells at 13.28 uM incubated for 72 hrs by JC-1 staining based flow cytometry analysis (reference value: 99.6 %); assay type: subcellular
Cell membrane [13] = test: Induction of mitochondrial membrane potential loss in human HCT-116 cells assessed as depolarized cells at 3.32 uM incubated for 72 hrs by JC-1 staining based flow cytometry analysis (reference value: 0.4 %); assay type: subcellular
HCT-116 [14] = test: Induction of apoptosis in human HCT-116 cells assessed as viable cells at 3.32 uM incubated for 24 hrs by Annexin V-FITC/PI staining based flow cytometry analysis (Rvb= 99.7%); assay type: functional; settings: read-out: Activity
HCT-116 [15] = test: Induction of apoptosis in human HCT-116 cells assessed as viable cells at 6.64 uM incubated for 24 hrs by Annexin V-FITC/PI staining based flow cytometry analysis (Rvb= 99.7%); assay type: functional; settings: read-out: Activity
HCT-116 [16] = test: Induction of apoptosis in human HCT-116 cells assessed as early apoptotic cells at 3.32 uM incubated for 24 hrs by Annexin V-FITC/PI staining based flow cytometry analysis (Rvb= 0.2%); assay type: functional
HCT-116 [17] = test: Induction of apoptosis in human HCT-116 cells assessed as early apoptotic cells at 6.64 uM incubated for 24 hrs by Annexin V-FITC/PI staining based flow cytometry analysis (Rvb= 0.2%); assay type: functional
HCT-116 [18] = test: Induction of apoptosis in human HCT-116 cells assessed as early apoptotic cells at 13.28 uM incubated for 24 hrs by Annexin V-FITC/PI staining based flow cytometry analysis (Rvb= 0.2%); assay type: functional
HCT-116 [19] = test: Induction of apoptosis in human HCT-116 cells assessed as late apoptotic cells at 3.32 uM incubated for 24 hrs by Annexin V-FITC/PI staining based flow cytometry analysis (Rvb= 0.1%); assay type: functional
HCT-116 [20] = test: Induction of apoptosis in human HCT-116 cells assessed as late apoptotic cells at 6.64 uM incubated for 24 hrs by Annexin V-FITC/PI staining based flow cytometry analysis (Rvb= 0.1%); assay type: functional
HCT-116 [21] = test: Induction of apoptosis in human HCT-116 cells assessed as late apoptotic cells at 13.28 uM incubated for 24 hrs by Annexin V-FITC/PI staining based flow cytometry analysis (Rvb= 0.1%); assay type: functional
HCT-116 [22] = test: Induction of apoptosis in human HCT-116 cells assessed as necrotic cells at 3.32 uM incubated for 24 hrs by Annexin V-FITC/PI staining based flow cytometry analysis (Rvb= 0.0%); assay type: functional
HCT-116 [23] = test: Induction of apoptosis in human HCT-116 cells assessed as necrotic cells at 6.64 uM incubated for 24 hrs by Annexin V-FITC/PI staining based flow cytometry analysis (Rvb= 0.0%); assay type: functional
HCT-116 [24] = test: Induction of apoptosis in human HCT-116 cells assessed as necrotic cells at 13.28 uM incubated for 24 hrs by Annexin V-FITC/PI staining based flow cytometry analysis (Rvb= 0.0%); assay type: functional
HCT-116 [25] = test: Cell cycle arrest in human HCT-116 cells assessed as accumulation of cells in sub-G1 phase at 3.32 uM measured after 48 hrs by PI staining based flow cytometry method (reference value: 4.6%); assay type: functional
HCT-116 [26] = test: Cell cycle arrest in human HCT-116 cells assessed as accumulation of cells in G0/G1 phase at 3.32 uM measured after 48 hrs by PI staining based flow cytometry method (reference value: 79%); assay type: functional
HCT-116 [27] = test: Cell cycle arrest in human HCT-116 cells assessed as accumulation of cells in G0/G1 phase at 6.64 uM measured after 48 hrs by PI staining based flow cytometry method (reference value: 79%); assay type: functional
HCT-116 [28] = test: Cell cycle arrest in human HCT-116 cells assessed as accumulation of cells in G0/G1 phase at 13.28 uM measured after 48 hrs by PI staining based flow cytometry method (reference value: 79%); assay type: functional
HCT-116 [29] = test: Cell cycle arrest in human HCT-116 cells assessed as accumulation of cells in S phase at 3.32 uM measured after 48 hrs by PI staining based flow cytometry method (reference value: 8.8%); assay type: functional
HCT-116 [30] = test: Cell cycle arrest in human HCT-116 cells assessed as accumulation of cells in S phase at 6.64 uM measured after 48 hrs by PI staining based flow cytometry method (reference value: 8.8%); assay type: functional
HCT-116 [31] = test: Cell cycle arrest in human HCT-116 cells assessed as accumulation of cells in S phase at 13.28 uM measured after 48 hrs by PI staining based flow cytometry method (reference value: 8.8%); assay type: functional
HCT-116 [32] = test: Cell cycle arrest in human HCT-116 cells assessed as accumulation of cells in G2/M phase at 6.64 uM measured after 48 hrs by PI staining based flow cytometry method (reference value: 6.7%); assay type: functional
Tubulin = test: Inhibition of tubulin polymerization (unknown origin) by absorbance based analysis; assay type: protein-complex assay, Homo sapiens

Molecule `CC(C)(C)S(=O)(=O)NCC1(Sc2nc3ccccc3[nH]2)C(=O)N(Cc2ccc(Br)cc2)c2ccccc21` (stereo not given) has an IC50 (A549) of 19.2 µM, an IC50 (BT-474) of 14.2 µM and an IC50 at 72 h [1] of 38.4 µM. For the same molecule, the Activity (HCT-116 [2]) was “Active”, the Activity (HCT-116 [3]) was “Active” and the Activity (HCT-116 [4]) was “Active”. For the same molecule, the Activity (HCT-116 [5]) was “Dose-Dependent Effect”, the Activity (HCT-116 [6]) was “Active” and the Activity (HCT-116 [7]) was “Dose-Dependent Effect”. For the same molecule, the inhibition (HCT-116 [8]) was “Active”, the inhibition (HCT-116 [9]) was “Active” and the Activity (Cell membrane [10]) was 97%. It also gave an Activity (Cell membrane [11]) of 94.1%, an Activity (Cell membrane [12]) of 86.7% and an Activity (Cell membrane [13]) of 3%. For the same molecule, the viability at 3.32 µM (HCT-116 [14]) was 4.5%, the viability at 6.64 µM (HCT-116 [15]) was 9.9% and the Activity (HCT-116 [16]) was 41.8%. It also gave an Activity (HCT-116 [17]) of 21.4%, an Activity (HCT-116 [18]) of 8.9% and an Activity (HCT-116 [19]) of 53.4%. The Activity (HCT-116 [20]) was 58.4%, the Activity (HCT-116 [21]) was 84.1% and the Activity (HCT-116 [22]) was 0.3%. It also gave an Activity (HCT-116 [23]) of 10.4%, an Activity (HCT-116 [24]) of 2.9% and an Activity (HCT-116 [25]) of 24.4%. It also gave an Activity (HCT-116 [26]) of 52%, an Activity (HCT-116 [27]) of 49.2% and an Activity (HCT-116 [28]) of 41%. The Activity (HCT-116 [29]) was 11.7%, the Activity (HCT-116 [30]) was 11.1% and the Activity (HCT-116 [31]) was 8.6%. For the same molecule, the Activity (HCT-116 [32]) was 13.3% and the IC50 (Tubulin) was 9.73 µM.
